Target: T1, HSD17B13 enzyme (Homo sapiens, UniProt Q7Z5P4)
T1 construct: His; made in house; host or cells: E. coli
T1 sequence (Q7Z5P4 20-300): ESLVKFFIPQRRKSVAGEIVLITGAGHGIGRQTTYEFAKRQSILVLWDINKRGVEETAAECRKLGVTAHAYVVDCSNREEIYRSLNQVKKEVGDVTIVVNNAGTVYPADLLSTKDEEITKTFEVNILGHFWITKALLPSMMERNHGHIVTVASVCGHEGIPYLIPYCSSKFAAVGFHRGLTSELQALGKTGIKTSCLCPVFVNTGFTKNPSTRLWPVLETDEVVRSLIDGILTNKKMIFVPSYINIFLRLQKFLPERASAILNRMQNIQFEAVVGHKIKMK
Assay: NADH detection assay (fluorescence based LTB3 assay) for HSD17B13 activity
Assay type: biochemical
Conditions: substrate 25 μM LTB3, 3 mM NAD+, 125 nM HSD17B13 enzyme, 1 hour at 26.5° C.
Experimental: Example A: NADH Detection Assay for Evaluation of HSD17ß13 Activity and Identification of Inhibitors
The fluorescence based Leukotriene B3 (LTB3) assay monitors the fluorescence of NADH, which is generated from NAD+ during the dehydrogenation of the substrate LTB3. The reactions were performed in a 384-well plates (Greiner; #655076) in a 20 μl reaction volume containing the following reagents (final concentrations): 25 μM LTB3 (Cayman; #20109); 3 mM NAD+ (Sigma; #N0623); 125 nM HSD17B13 enzyme (in-house; E. coli expressed His-tagged, purified, soluble protein); […] potassium phosphate buffer, pH 7.4; and 1% DMSO. Reactions were initiated by co-addition of NAD+ and enzyme, and monitored for 1 hour at 26.5° C. Generation of NADH was measured as the fluorescence signal (Excitation at 340 nm and Emission at 445 nm) at 1 hour minus the baseline fluorescence at t=0. Fluorescence signals in the absence of LTB3 (negative control values), were subtracted from all values so that the results reflected substrate-dependent production of NADH. NADH standards were included to allow the conversion of relative fluorescence units into rates of enzyme activity. Enzyme activity in the presence of test compounds was expressed as a percentage of the uninhibited enzyme activity, and plotted versus inhibitor concentration. Non-linear regression was performed using a four-parameter logistic model and GraphPad Prism software (GraphPad Software, La Jolla, CA). Ten concentrations of inhibitor were tested (in the range of 30 μM-2.5 nM), and two independent assessments were performed at each concentration.

Structure (SMILES) | IC50
N#Cc1c(Oc2ccc(F)c(O)c2)cccc1-c1cccc(O)c1F [Example 22, 2′-fluoro-3-(4-fluoro-3-hydroxyphenoxy)-3′-hydroxy-[1,1′-biphenyl]-2-carbonitrile] | ≤ 5 µM
CN(c1ccc(F)c(O)c1)c1cccc(-c2cccc(O)c2F)c1C#N [Example 23] | > 30 µM
NC(=O)c1ccc(-c2cccc(O)c2F)nc1Oc1ccc(F)c(O)c1 [Example 25, 2-(4-fluoro-3-hydroxyphenoxy)-6-(2-fluoro-3-hydroxyphenyl)pyridine-3-carboxamide] | ≤ 5 µM
CC(=O)Nc1nc2cc(-c3cccc(Oc4ccc(F)c(O)c4)n3)ccc2[nH]1 [Example 26, N-(5-(6-(4-fluoro-3-hydroxyphenoxy)pyridin-2-yl)-1H-benzo [d]imidazol-2-yl)acetamide] | ≤ 5 µM
N#Cc1cc(Oc2ccc(F)c(O)c2)nc(-c2cccc(O)c2F)c1 [Example 27, 2-(4-fluoro-3-hydroxyphenoxy)-6-(2-fluoro-3-hydroxyphenyl) pyridine-4-carbonitrile] | ≤ 5 µM
Oc1cc(Oc2cccc(-c3ccc(O)c(OCc4ccccc4)c3)n2)ccc1F [Example 28, 2-(benzyloxy)-4-[6-(4-fluoro-3-hydroxyphenoxy)pyridin-2-yl] phenol] | ≤ 5 µM
NS(=O)(=O)Nc1cc(Oc2cccc(-c3cccc(O)c3F)n2)ccc1F [Example 30, N-(2-fluoro-5-{[6-(2-fluoro-3-hydroxyphenyl)pyridin-2-yl]oxy}phenyl)aminosulfonamide] | > 30 µM
O=S1(=O)CCN(c2ccc(-c3cccc(Oc4ccc(F)c(O)c4)n3)cc2)CC1 [Example 31, 4-(4-(6-(4-fluoro-3-hydroxyphenoxy)pyridin-2-yl)phenyl)thiomorpholine 1,1-dioxide] | ≤ 5 µM
Nc1nc2cc(-c3cccc(Oc4ccc(F)c(O)c4)n3)ccc2o1 [Example 32, 5-{[6-(2-amino-1,3-benzoxazol-5-yl)pyridin-2-yl]oxy}-2-fluorophenol] | 5 to 10 µM
CN1CCOc2cc(-c3cccc(Oc4ccc(F)c(O)c4)n3)ccc21 [Example 33, 2-fluoro-5-((6-(4-methyl-3,4-dihydro-2H-benzo[b][1,4]oxazin-7-yl)pyridin-2-yl)oxy)phenol] | ≤ 5 µM
Oc1cc(Oc2cccc(-c3ccc(OCc4ccccc4)c(F)c3)n2)ccc1F [Example 34, 5-({6-[4-(benzyloxy)-3-fluorophenyl]pyridin-2-yl}oxy)-2-fluorophenol] | > 30 µM
COc1ccc(Oc2cccc(-c3cccc(O)c3F)n2)cc1C(=O)O [Example 35, 5-((6-(2-fluoro-3-hydroxyphenyl)pyridin-2-yl)oxy)-2-methoxybenzoic acid] | > 30 µM
Oc1cccc(Oc2cccc(-c3cccc(O)c3F)n2)c1F [Example 36, 2-fluoro-3-(6-(2-fluoro-3-hydroxyphenoxy)pyridin-2-yl)phenol] | ≤ 5 µM
Oc1ccc(Oc2cccc(-c3cccc(O)c3F)n2)cc1F [Example 37, 2-fluoro-3-[6-(3-fluoro-4-hydroxyphenoxy)pyridin-2-yl] phenol] | ≤ 5 µM
Oc1cc(Oc2cccc(-c3cccc(F)c3O)n2)ccc1F [Example 38, 2-fluoro-5-((6-(3-fluoro-2-hydroxyphenyl)pyridin-2-yl)oxy)phenol] | > 30 µM
Oc1cc(Oc2cccc(-c3ccc(O)c(F)c3)n2)ccc1F [Example 39, 2-fluoro-4-(6-(4-fluoro-3-hydroxyphenoxy)pyridin-2-yl)phenol] | ≤ 5 µM
Oc1cc(Oc2cccc(-c3ccc(F)c(O)c3)n2)ccc1F [Example 40, 2-fluoro-5-(6-(4-fluoro-3-hydroxyphenoxy)pyridin-2-yl)phenol] | ≤ 5 µM
O=c1[nH]c2ccc(Oc3cccc(-c4cccc(O)c4F)n3)cc2[nH]1 [Example 41, 5-((6-(2-fluoro-3-hydroxyphenyl)pyridin-2-yl)oxy)-1,3-dihydro-2H-benzo[d]imidazol-2-one] | 5 to 10 µM
CC(=O)N1CCN(S(=O)(=O)c2cccc(-c3cccc(Oc4ccc(F)c(O)c4)n3)c2)CC1 [Example 42, 1-(4-{3-[6-(4-fluoro-3-hydroxyphenoxy)pyridin-2-yl]benzenesulfonyl}piperazin-1-yl)ethan-1-one] | > 30 µM

Structure (SMILES) | IC50
CN1CCN(S(=O)(=O)c2cccc(-c3cccc(Oc4ccc(F)c(O)c4)n3)c2)CC1 [Example 43, 2-fluoro-5-((6-(3-((4-methylpiperazin-1-yl)sulfonyl)phenyl)pyridin-2-yl)oxy)phenol] | 5 to 10 µM
O=S(=O)(c1cccc(-c2cccc(Oc3ccc(F)c(O)c3)n2)c1)N1CCOCC1 [Example 44, 2-fluoro-5-((6-(3-(morpholinosulfonyl)phenyl)pyridin-2-yl)oxy)phenol] | ≤ 5 µM
O=S(=O)(Nc1ccccc1)c1cccc(-c2cccc(Oc3ccc(F)c(O)c3)n2)c1 [Example 45, 3-(6-(4-fluoro-3-hydroxyphenoxy)pyridin-2-yl)-N-phenylbenzene sulfonamide] | ≤ 5 µM
CC(=O)N1CCOc2cc(-c3cccc(Oc4ccc(F)c(O)c4)n3)ccc21 [Example 46, 1-{7-[6-(4-fluoro-3-hydroxyphenoxy)pyridin-2-yl]-3,4-dihydro-2H-1,4-benzoxazin-4-yl}ethan-1-one] | ≤ 5 µM
Nc1nc2cc(-c3cccc(Oc4ccc(F)c(O)c4)n3)ccc2s1 [Example 47, 5-((6-(2-aminobenzo[d]thiazol-5-yl)pyridin-2-yl)oxy)-2-fluorophenol] | ≤ 5 µM
O=S(=O)(c1cccc(-c2cccc(Oc3ccc(F)c(O)c3)n2)c1)N1CCNCC1 [Example 48, 2-fluoro-5-((6-(3-(piperazin-1-ylsulfonyl)phenyl)pyridin-2-yl)oxy) phenol] | > 30 µM
NS(=O)(=O)c1cccc(-c2cccc(Oc3ccc(F)c(O)c3)n2)c1 [Example 49, 3-[6-(4-fluoro-3-hydroxyphenoxy)pyridin-2-yl]benzene-1-sulfonamide] | 5 to 10 µM
Oc1cc(Oc2cccc(-c3ccc4scnc4c3)n2)ccc1F [Example 50, 5-{[6-(1,3-benzothiazol-5-yl)pyridin-2-yl]oxy}-2-fluorophenol] | ≤ 5 µM
O=C1COc2cc(-c3cccc(Oc4ccc(F)c(O)c4)n3)ccc2N1 [Example 51, 7-(6-(4-fluoro-3-hydroxyphenoxy)pyridin-2-yl)-2H-benzo[b][1,4]oxazin-3(4H)-one] | > 30 µM
COc1cccc(-c2cccc(Oc3ccc(F)c(C(F)F)c3)n2)c1F [Example 52, 2-[3-(difluoromethyl)-4-fluorophenoxy]-6-(2-fluoro-3-methoxyphenyl) pyridine] | > 30 µM
CN1C(=O)COc2cc(-c3cccc(Oc4ccc(F)c(O)c4)n3)ccc21 [Example 53, 7-(6-(4-fluoro-3-hydroxyphenoxy)pyridin-2-yl)-4-methyl-2H-benzo[b][1,4]oxazin-3(4H)-one] | ≤ 5 µM
CNc1cccc(-c2cccc(Oc3ccc(F)c(O)c3)n2)c1 [Example 54, 2-fluoro-5-({6-[3-(methylamino)phenyl]pyridin-2-yl}oxy)phenol] | ≤ 5 µM
O=S(=O)(c1ccc(F)c(O)c1)c1cccc(-c2cccc(O)c2F)n1 [Example 55, 2-fluoro-3-[6-(4-fluoro-3-hydroxybenzenesulfonyl)pyridin-2-yl]phenol] | 5 to 10 µM
Oc1cccc(-c2cccc(Oc3ccc4c(c3)NCCO4)n2)c1F [Example 56, 3-[6-(3,4-dihydro-2H-1,4-benzoxazin-6-yloxy)pyridin-2-yl]-2-fluorophenol] | > 30 µM
CS(=O)(=O)Nc1cc(Oc2cccc(-c3cccc(O)c3F)n2)ccc1F [Example 57, N-(2-fluoro-5-{[6-(2-fluoro-3-hydroxyphenyl)pyridin-2-yl]oxy}phenyl)methane-sulfonamide] | > 30 µM
O=c1[nH]c2ccc(-c3cccc(Oc4ccc(F)c(O)c4)n3)cc2[nH]1 [Example 58, 5-(6-(4-fluoro-3-hydroxyphenoxy)pyridin-2-yl)-1,3-dihydro-2H-benzo[d]imidazol-2-one] | ≤ 5 µM
Oc1cc(Oc2cccc(-c3ccc4c(c3)NCCO4)n2)ccc1F [Example 59, 5-((6-(3,4-dihydro-2H-benzo[b][1,4]oxazin-6-yl)pyridin-2-yl)oxy)-2-fluorophenol] | ≤ 5 µM
COc1cc(Oc2cccc(-c3ccc4c(c3)NS(=O)(=O)C4)n2)ccc1F [Example 60, 6-(6-(4-fluoro-3-methoxyphenoxy)pyridin-2-yl)-1,3-dihydrobenzo[c]isothiazole 2,2-dioxide] | > 30 µM
CC(=O)Nc1nc2cc(-c3cccc(Oc4ccc(F)c(O)c4)n3)ccc2s1 [Example 61, N-(5-(6-(4-fluoro-3-hydroxyphenoxy)pyridin-2-yl)benzo[d]thiazol-2-yl) acetamide] | > 30 µM

— patent publication US12643858B2 (Inipharm, Inc., priority 2020, dated 2026)
